{
  "source": "paper PMC3445516",
  "about": "(PLoS ONE, 2012)",
  "test_in_all_cases": "Ambit kinase profiling, competition binding",
  "key": {"CDC2L2": {"molecular_target": "T1, CDC2L2 (Homo sapiens, UniProt Q9UQ88)", "T1 construct": "purchased Ambit Biosciences (KINOMEscan)", "T1 sequence (Q9UQ88 1-783)": "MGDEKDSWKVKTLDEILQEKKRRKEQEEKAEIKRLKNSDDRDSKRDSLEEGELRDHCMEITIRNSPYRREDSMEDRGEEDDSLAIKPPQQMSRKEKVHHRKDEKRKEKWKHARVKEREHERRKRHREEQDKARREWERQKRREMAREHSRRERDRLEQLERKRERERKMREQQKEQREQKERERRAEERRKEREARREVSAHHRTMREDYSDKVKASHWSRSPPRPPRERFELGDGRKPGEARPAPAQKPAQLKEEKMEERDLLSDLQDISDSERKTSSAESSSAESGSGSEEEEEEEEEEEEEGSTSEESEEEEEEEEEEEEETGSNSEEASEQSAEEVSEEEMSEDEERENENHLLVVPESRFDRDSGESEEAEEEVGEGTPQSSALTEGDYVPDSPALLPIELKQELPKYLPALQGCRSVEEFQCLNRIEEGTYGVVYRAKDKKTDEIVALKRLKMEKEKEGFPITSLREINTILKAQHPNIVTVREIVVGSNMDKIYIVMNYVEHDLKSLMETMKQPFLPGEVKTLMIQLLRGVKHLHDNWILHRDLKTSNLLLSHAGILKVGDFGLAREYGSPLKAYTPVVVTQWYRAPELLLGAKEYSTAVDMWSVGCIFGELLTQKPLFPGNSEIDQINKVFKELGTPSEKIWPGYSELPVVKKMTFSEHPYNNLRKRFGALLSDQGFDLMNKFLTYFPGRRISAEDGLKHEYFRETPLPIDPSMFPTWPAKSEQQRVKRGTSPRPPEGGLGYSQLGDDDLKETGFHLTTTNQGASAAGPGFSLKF", "protocol": "(§1) Also included in the kinase profile are four isoforms of PKC (δ, ε, η, θ) and eight isoforms of CAMKs (CAMKIα, δ, γ; CAMKIIα, β, δ, γ; CAMK4).\n(§2) The global kinase profiling experiment was performed by Ambit Biosciences."}, "[1]": {"molecular_target": "T2, RPS6KA1(Kin.Dom.2-C-terminal) (Homo sapiens, UniProt Q15418)", "T2 construct": "RPS6KA1(Kin.Dom.2-C-terminal); purchased Ambit Biosciences (KINOMEscan)", "T2 sequence (Q15418 392-735 limits assumed)": "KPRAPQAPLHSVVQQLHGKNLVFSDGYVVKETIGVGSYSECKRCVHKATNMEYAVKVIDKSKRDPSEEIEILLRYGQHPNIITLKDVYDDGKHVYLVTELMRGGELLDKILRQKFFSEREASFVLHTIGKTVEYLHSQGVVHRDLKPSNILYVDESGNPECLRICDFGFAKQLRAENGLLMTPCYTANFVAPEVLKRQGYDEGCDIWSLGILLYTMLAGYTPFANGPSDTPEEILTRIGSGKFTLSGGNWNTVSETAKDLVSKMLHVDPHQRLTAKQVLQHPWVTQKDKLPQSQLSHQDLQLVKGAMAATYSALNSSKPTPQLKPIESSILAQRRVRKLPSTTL", "protocol": "as §1, §2"}, "PAK7": {"molecular_target": "T3, PAK7 (Homo sapiens, UniProt Q9P286)", "T3 construct": "purchased Ambit Biosciences (KINOMEscan)", "protocol": "as §1, §2"}, "PHKG2": {"molecular_target": "T4, PHKG2 (Homo sapiens, UniProt P15735)", "T4 construct": "purchased Ambit Biosciences (KINOMEscan)", "T4 sequence (P15735 1-406)": "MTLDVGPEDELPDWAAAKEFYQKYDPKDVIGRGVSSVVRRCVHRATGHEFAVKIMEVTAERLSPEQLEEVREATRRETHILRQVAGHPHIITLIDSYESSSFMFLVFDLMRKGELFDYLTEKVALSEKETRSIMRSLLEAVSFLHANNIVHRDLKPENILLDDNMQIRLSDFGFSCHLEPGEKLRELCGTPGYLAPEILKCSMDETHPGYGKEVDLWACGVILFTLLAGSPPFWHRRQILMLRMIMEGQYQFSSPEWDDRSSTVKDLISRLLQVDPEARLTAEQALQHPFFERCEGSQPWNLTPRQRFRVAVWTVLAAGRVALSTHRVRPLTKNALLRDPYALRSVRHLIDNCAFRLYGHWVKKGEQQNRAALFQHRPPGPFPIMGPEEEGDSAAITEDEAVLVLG", "protocol": "as §1, §2"}, "TAOK1": {"molecular_target": "T5, TAOK1 (Homo sapiens, UniProt Q7L7X3)", "T5 construct": "purchased Ambit Biosciences (KINOMEscan)", "T5 sequence (Q7L7X3 1-1001)": "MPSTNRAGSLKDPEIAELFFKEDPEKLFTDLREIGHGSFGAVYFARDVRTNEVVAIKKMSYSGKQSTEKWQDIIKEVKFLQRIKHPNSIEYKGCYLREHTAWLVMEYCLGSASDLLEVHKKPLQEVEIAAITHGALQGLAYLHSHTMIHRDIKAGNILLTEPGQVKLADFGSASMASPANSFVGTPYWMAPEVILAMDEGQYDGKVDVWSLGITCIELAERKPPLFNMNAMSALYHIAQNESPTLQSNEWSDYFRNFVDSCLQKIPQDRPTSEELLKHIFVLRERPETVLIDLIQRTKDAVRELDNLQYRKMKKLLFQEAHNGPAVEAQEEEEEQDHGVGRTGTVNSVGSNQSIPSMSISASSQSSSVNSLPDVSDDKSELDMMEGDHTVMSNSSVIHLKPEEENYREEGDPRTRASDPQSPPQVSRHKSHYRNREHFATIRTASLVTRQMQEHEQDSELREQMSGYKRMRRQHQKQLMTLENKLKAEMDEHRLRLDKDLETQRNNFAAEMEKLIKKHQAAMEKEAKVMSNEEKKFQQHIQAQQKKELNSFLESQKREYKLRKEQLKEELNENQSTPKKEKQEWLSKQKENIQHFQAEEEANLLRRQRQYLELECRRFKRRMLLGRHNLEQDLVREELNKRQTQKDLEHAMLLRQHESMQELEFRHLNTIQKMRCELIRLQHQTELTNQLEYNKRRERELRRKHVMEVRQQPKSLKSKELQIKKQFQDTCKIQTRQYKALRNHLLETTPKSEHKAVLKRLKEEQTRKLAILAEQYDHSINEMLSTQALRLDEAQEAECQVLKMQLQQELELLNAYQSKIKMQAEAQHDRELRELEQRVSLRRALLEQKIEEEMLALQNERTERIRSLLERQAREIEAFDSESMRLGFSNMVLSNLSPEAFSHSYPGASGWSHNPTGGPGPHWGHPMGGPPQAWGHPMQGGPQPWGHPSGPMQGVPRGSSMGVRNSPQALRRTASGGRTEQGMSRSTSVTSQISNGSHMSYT", "protocol": "as §1, §2"}, "CDK5": {"molecular_target": "T6, CDK5 (Homo sapiens, UniProt Q00535)", "T6 construct": "purchased Ambit Biosciences (KINOMEscan)", "protocol": "as §1, §2"}, "CSNK1G1": {"molecular_target": "T7, CSNK1G1 (Homo sapiens, UniProt Q9HCP0)", "T7 construct": "purchased Ambit Biosciences (KINOMEscan)", "details": "for % Competition: 10 µM", "protocol": "as §1, §2"}, "BRAF(V600E)": {"molecular_target": "T8, BRAF(V600E) (Homo sapiens, UniProt P15056, V600E)", "T8 construct": "purchased Ambit Biosciences (KINOMEscan)", "T8 sequence (P15056 whole entry V600E)": "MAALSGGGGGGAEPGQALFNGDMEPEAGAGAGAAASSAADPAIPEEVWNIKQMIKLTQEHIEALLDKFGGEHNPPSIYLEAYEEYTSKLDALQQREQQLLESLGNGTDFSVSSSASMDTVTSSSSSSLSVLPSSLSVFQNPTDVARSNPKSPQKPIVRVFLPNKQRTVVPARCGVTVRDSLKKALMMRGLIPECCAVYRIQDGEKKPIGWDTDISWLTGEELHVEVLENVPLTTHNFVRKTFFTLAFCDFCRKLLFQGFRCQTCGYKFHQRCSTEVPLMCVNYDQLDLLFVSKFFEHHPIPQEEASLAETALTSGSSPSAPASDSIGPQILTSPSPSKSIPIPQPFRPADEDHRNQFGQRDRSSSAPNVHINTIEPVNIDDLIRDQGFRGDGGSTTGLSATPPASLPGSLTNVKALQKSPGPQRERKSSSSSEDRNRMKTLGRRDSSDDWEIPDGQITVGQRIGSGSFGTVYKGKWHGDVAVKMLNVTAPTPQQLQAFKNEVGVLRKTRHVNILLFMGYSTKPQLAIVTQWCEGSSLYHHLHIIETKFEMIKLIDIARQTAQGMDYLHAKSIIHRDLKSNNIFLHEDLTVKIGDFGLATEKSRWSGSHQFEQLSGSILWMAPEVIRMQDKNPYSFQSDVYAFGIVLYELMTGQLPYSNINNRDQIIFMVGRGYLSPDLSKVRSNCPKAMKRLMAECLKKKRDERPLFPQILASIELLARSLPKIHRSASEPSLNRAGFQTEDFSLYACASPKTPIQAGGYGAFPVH", "protocol": "as §1, §2"}},
  "note": "Where two headings read alike, the source gives them in different places.",
  "data": [
    {"smiles": "Fc1ccc(-c2c(-c3ccncc3)[nH]c3nccnc23)cc1", "note": "[Compound 122]", "values": [
      {"measurement": "inhibition at 10 µM", "setting": "CDC2L2; CDC2L2, 10 µM, read-out: % Competition", "value": 92, "unit": "%"},
      {"measurement": "inhibition at 10 µM", "setting": "[1]; RPS6KA1(Kin.Dom.2-C-terminal), 10 µM, read-out: % Competition", "value": 92, "unit": "%"},
      {"measurement": "inhibition at 10 µM", "setting": "PAK7; PAK7, 10 µM, read-out: % Competition", "value": 86, "unit": "%"},
      {"measurement": "inhibition at 10 µM", "setting": "PHKG2; PHKG2, 10 µM, read-out: % Competition", "value": 91, "unit": "%"},
      {"measurement": "inhibition at 10 µM", "setting": "TAOK1; TAOK1, 10 µM, read-out: % Competition", "value": 99, "unit": "%"},
      {"measurement": "inhibition at 10 µM", "setting": "CDK5; CDK5, 10 µM, read-out: % Competition", "value": 92, "unit": "%"},
      {"measurement": "% Competition", "setting": "CSNK1G1", "value": 78, "unit": "%"},
      {"measurement": "inhibition at 10 µM", "setting": "BRAF(V600E); BRAF(V600E), 10 µM, read-out: % Competition", "value": 97, "unit": "%"}
    ]},
    {"smiles": "CC(O)CNc1cc(-c2[nH]c3cccnc3c2-c2ccc(F)cc2)ccn1", "note": "(stereo not drawn) [Compound 140]", "values": [
      {"measurement": "inhibition at 10 µM", "setting": "CDC2L2; read-out: % Competition", "value": "< 50", "unit": "%"},
      {"measurement": "inhibition at 10 µM", "setting": "[1]; read-out: % Competition", "value": 87, "unit": "%"},
      {"measurement": "inhibition at 10 µM", "setting": "PAK7; read-out: % Competition", "value": "< 50", "unit": "%"},
      {"measurement": "inhibition at 10 µM", "setting": "PHKG2; read-out: % Competition", "value": "< 50", "unit": "%"},
      {"measurement": "inhibition at 10 µM", "setting": "TAOK1; read-out: % Competition", "value": 67, "unit": "%"},
      {"measurement": "inhibition at 10 µM", "setting": "CDK5; read-out: % Competition", "value": "< 50", "unit": "%"},
      {"measurement": "% Competition", "setting": "CSNK1G1", "value": 94, "unit": "%"},
      {"measurement": "inhibition at 10 µM", "setting": "BRAF(V600E); read-out: % Competition", "value": 78, "unit": "%"}
    ]},
    {"smiles": "Fc1ccc(-c2c(-c3ccncc3)[nH]c3nccnc23)cc1", "note": "[RO1155697-000-005]", "values": [
      {"measurement": "inhibition at 10 µM", "setting": "CDC2L2; CDC2L2, compound concentration 10 uM, read-out: Percent Competition", "value": 92, "unit": "%"},
      {"measurement": "inhibition at 10 µM", "setting": "[1]; RPS6KA1(Kin.Dom.2-C-terminal), compound concentration 10 uM, read-out: Percent Competition", "value": 92, "unit": "%"},
      {"measurement": "inhibition at 10 µM", "setting": "PAK7; PAK7, compound concentration 10 uM, read-out: Percent Competition", "value": 86, "unit": "%"},
      {"measurement": "inhibition at 10 µM", "setting": "PHKG2; PHKG2, compound concentration 10 uM, read-out: Percent Competition", "value": 91, "unit": "%"},
      {"measurement": "inhibition at 10 µM", "setting": "TAOK1; TAOK1, compound concentration 10 uM, read-out: Percent Competition", "value": 99, "unit": "%"},
      {"measurement": "inhibition at 10 µM", "setting": "CDK5; CDK5, compound concentration 10 uM, read-out: Percent Competition", "value": 92, "unit": "%"},
      {"measurement": "Percent Competition", "setting": "CSNK1G1; compound concentration 10 uM", "value": 78, "unit": "%"},
      {"measurement": "inhibition at 10 µM", "setting": "BRAF(V600E); BRAF(V600E), compound concentration 10 uM, read-out: Percent Competition", "value": 97, "unit": "%"}
    ]}
  ]
}
